Test [1] has as its target Hypoxia-inducible factor 1-alpha (Homo sapiens) (UniProt Q16665). Put plainly: Induction of stabilization of HIF-1alpha in human Hep3B cells by measuring fold change protein level at 500 uM incubated for 3 hrs by Western blot analysis. Format: cell-based.
In test [2] the target is Hypoxia-inducible factor 1-alpha (Mus musculus) (UniProt Q61221). Put plainly: Induction of stabilization of HIF-1alpha in mouse NIH-3T3-HIF/Luc cells assessed as activation of HRE by measuring […] at 500 uM incubated for 24 hrs by Bright-glo luciferase assay. Format: cell-based.
Test [3] deals with Mus musculus. Put plainly: Protection against oxygen-induced retinopathy in mouse pup assessed as glia preservation in total retinal flat mount administered as ip dose on postnatal day 6, 8, 10 and reared in 75% oxygen exposure on postnatal day 7 to day 12 and measured on postnatal day 17 by isolectin/GFAP based staining analysis. The format is functional, organism-based. To be noted: time 12.0 day.

Test [4] relates to Mus musculus. Briefly: Protection against oxygen-induced hypomyelination in mouse pup assessed as increase in Cox4i2 mRNA level in liver administered as ip dose on postnatal day 3, 5, 7 and reared in 80% oxygen exposure on postnatal day 4 to day 8 and measured on postnatal day 11. Format: functional, organism-based. As to conditions: time 9.0 day.
Test [5] has as its target Hypoxia-inducible factor 1-alpha (Homo sapiens) (UniProt Q16665). Put plainly: Induction of stabilization of HIF-1alpha in human Hep3B cells measured at 3 hrs by Western blot analysis. The format is cell-based.
In test [6] the test system is Mus musculus. Briefly: Protection against oxygen-induced retinopathy in wild type C57BL/6J mouse pup assessed as reduction in retinal neovascularization at 1 mmol/Kg, ip administered on postnatal day 6, 8, 10 and reared in 75% oxygen exposure on postnatal day 7 to day 12 and measured on postnatal day 17 by lectin based staining analysis. The format is functional, organism-based. To be noted: time 12.0 day.

For test [7], the target named is Hypoxia-inducible factor 1-alpha (Homo sapiens) (UniProt Q16665). Put plainly: Induction of stabilization of HIF-1alpha in human Hep3B cells incubated for 24 hrs by Immunoblot analysis. The format is cell-based.
The subject of test [8] is Mus musculus. Briefly: Effect on myelination in oxygen-induced hypomyelination mouse pup model assessed as effect on HIF-1alpha level in brain administered as ip dose on postnatal day 3, 5, 7 and reared in 80% oxygen exposure on postnatal day 4 to day 8 and measured on postnatal day 11 by Western blot analysis. The format is functional, organism-based. As to conditions: time 9.0 day.

The target in test [9] is Hypoxia-inducible factor 1-alpha (Mus musculus) (UniProt Q61221). Briefly: Induction of stabilization of HIF-1alpha in mouse NIH-3T3-HIF/Luc cells assessed as activation of HRE measured at 24 hrs by Bright-glo luciferase assay. The format is cell-based.
Test [10] concerns Mus musculus. Briefly: Protection against oxygen-induced hypomyelination in mouse pup assessed as increase in Bnip3 mRNA level in liver administered as ip dose on postnatal day 3, 5, 7 and reared in 80% oxygen exposure on postnatal day 4 to day 8 and measured on postnatal day 11. Format: functional, organism-based. As to conditions: time 9.0 day.
The test system of test [11] is Mus musculus. Put plainly: Effect on myelination in oxygen-induced hypomyelination mouse pup model assessed as effect on myelin basic protein level in brain administered as ip dose on postnatal day 3, 5, 7 and reared in 80% oxygen exposure on postnatal day 4 to day 8 and measured on postnatal day 11 by Western blot analysis. The format is functional, organism-based. To be noted: time 9.0 day.

Test [12] has as its system Mus musculus. Briefly: Protection against oxygen-induced retinopathy in wild type C57BL/6J mouse pup assessed as reduction in avascular retina at 1 mmol/Kg, ip administered on postnatal day 6, 8, 10 and reared in 75% oxygen exposure on postnatal day 7 to day 12 and measured on postnatal day 17 by lectin based staining analysis. The format is functional, organism-based. As to conditions: time 12.0 day.

In test [13] the test system is Mus musculus. Briefly: In vivo inhibition of PHD in Luc-ODD mouse model assessed as stabilization of HIF-1alpha in kidney at 1 mM, ip single dose on postnatal day 8 measured after 3 hrs by Bright-glo luciferase assay. Format: functional, organism-based.
For test [14], the target named is Hypoxia-inducible factor 1-alpha (Homo sapiens) (UniProt Q16665). Put plainly: Induction of stabilization of HIF-1alpha in human Hep3B cells at 1 mM measured at 3 to 6 hrs by Immunoblot analysis. Format: cell-based. To be noted: time 3-6 hrs.
The test system of test [15] is Mus musculus. Briefly: Protection against oxygen-induced retinopathy in wild type C57BL/6J mouse pup assessed as reduction in retinal vaso-obliteration at 1 mmol/Kg, ip administered on postnatal day 6, 8, 10 and reared in 75% oxygen exposure on postnatal day 7 to day 12 and measured on postnatal day 17 by lectin based staining analysis. Format: functional, organism-based. As to conditions: time 12.0 day.

For test [16], the system named is Mus musculus. Put plainly: Protection against oxygen-induced retinopathy in mouse pup assessed as astrocyte survival administered as ip dose on postnatal day 6, 8, 10 and reared in 75% oxygen exposure on postnatal day 7 to day 12 and measured on postnatal day 17 by isolectin/GFAP based staining analysis. As to conditions: time 12.0 day. The format is functional, organism-based.

The subject of test [17] is Mus musculus. Put plainly: Protection against oxygen-induced hypomyelination in mouse pup assessed as increase in bipolar cell activity by measuring amplitude of ERG b-wave administered as ip dose on postnatal day 3, 5, 7 and reared in 80% oxygen exposure on postnatal day 4 to day 8 and measured on postnatal day 11 by electroretinogram analysis. Format: functional, organism-based. As to conditions: time 9.0 day.

In test [18] the test system is Mus musculus. Briefly: In vivo inhibition of PHD in Luc-ODD mouse model assessed as stabilization of HIF-1alpha in brain at 1 mM, ip single dose on postnatal day 7 measured at 3 to 24 hrs by Bright-glo luciferase assay. Format: functional, organism-based. To be noted: time 3-24 hrs.
Test [19] has as its system Mus musculus. Briefly: In vivo inhibition of PHD in Luc-ODD mouse model assessed as stabilization of HIF-1alpha in liver at 1 mM, ip single dose on postnatal day 7 measured after 24 hrs by Bright-glo luciferase assay. Format: functional, organism-based.
In test [20] the test system is Mus musculus. Briefly: Protection against oxygen-induced retinopathy in liver-specific HIF knockout (LHKO) mouse pup assessed as reduction in retinal vaso-obliteration at 1 mmol/Kg, ip administered on postnatal day 6, 8, 10 and reared in 75% oxygen exposure on postnatal day 7 to day 12 and measured on postnatal day 17 by lectin based staining analysis. As to conditions: time 12.0 day. Format: functional, organism-based.

Test [21] relates to Mus musculus. Briefly: In vivo inhibition of PHD in Luc-ODD mouse model assessed as stabilization of HIF-1alpha in liver at 1 mM, ip single dose on postnatal day 8 measured after 3 hrs by Bright-glo luciferase assay. Format: functional, organism-based.
Test [22] concerns the target Hypoxia-inducible factor 1-alpha (Homo sapiens) (UniProt Q16665). Briefly: Induction of stabilization of HIF-1alpha in human Hep3B cells at 1 to 4 mM measured at 24 hrs by Immunoblot analysis. Format: cell-based. As to conditions: dose 1-4 mM.
The subject of test [23] is Mus musculus. Put plainly: Protection against oxygen-induced hypomyelination in mouse pup assessed as increase in vegf mRNA level in liver administered as ip dose on postnatal day 3, 5, 7 and reared in 80% oxygen exposure on postnatal day 4 to day 8 and measured on postnatal day 11. The format is functional, organism-based. To be noted: time 9.0 day.
The target of test [24] is Hypoxia-inducible factor 1-alpha (Mus musculus) (UniProt Q61221). Briefly: Induction of stabilization of HIF-1alpha in mouse NIH-3T3-HIF/Luc cells assessed as activation of HRE at 1 mM incubated for 24 hrs by Bright-glo luciferase assay. The format is cell-based.
The subject of test [25] is Mus musculus. Briefly: Protection against oxygen-induced hypomyelination in mouse pup assessed as increase in serpine1 mRNA level in liver administered as ip dose on postnatal day 3, 5, 7 and reared in 80% oxygen exposure on postnatal day 4 to day 8 and measured on postnatal day 11. The format is functional, organism-based. As to conditions: time 9.0 day.
The target of test [26] is Hypoxia-inducible factor 1-alpha (Mus musculus) (UniProt Q61221). Put plainly: Induction of stabilization of HIF-1alpha in mouse NIH-3T3-HIF/Luc cells assessed as activation of HRE at 1 to 4 mM measured at 48 hrs by Bright-glo luciferase assay. The format is cell-based. To be noted: dose 1-4 mM.

SMILES strings stand for the structures. Active and inactive are the calls of the source. No cut-off for these calls is given here.

Hypoxia-inducible factor 1-alpha (Mus musculus), sequence (Q61221 whole entry): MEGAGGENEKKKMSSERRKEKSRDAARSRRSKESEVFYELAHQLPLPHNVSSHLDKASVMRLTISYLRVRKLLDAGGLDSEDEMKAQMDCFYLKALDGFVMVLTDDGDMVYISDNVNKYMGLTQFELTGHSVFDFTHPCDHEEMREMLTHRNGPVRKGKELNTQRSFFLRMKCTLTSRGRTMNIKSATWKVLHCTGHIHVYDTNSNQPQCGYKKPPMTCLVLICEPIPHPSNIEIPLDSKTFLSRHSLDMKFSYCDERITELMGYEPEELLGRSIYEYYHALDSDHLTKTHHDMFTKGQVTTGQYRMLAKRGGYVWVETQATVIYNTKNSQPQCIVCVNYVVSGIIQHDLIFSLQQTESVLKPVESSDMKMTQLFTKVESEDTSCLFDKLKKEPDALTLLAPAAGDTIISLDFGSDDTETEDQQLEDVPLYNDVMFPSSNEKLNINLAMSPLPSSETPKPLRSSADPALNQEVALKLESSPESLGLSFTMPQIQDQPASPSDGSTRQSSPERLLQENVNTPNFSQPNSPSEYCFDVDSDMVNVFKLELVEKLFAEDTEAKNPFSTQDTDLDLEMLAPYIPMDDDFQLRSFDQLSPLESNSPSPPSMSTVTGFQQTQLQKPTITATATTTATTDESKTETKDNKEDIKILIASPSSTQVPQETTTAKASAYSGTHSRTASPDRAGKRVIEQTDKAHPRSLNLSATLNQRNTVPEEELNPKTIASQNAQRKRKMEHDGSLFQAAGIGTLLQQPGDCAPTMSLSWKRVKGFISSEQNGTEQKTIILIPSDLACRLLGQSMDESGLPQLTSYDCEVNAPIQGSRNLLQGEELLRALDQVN
Hypoxia-inducible factor 1-alpha (Homo sapiens), sequence (Q16665 whole entry, looked up): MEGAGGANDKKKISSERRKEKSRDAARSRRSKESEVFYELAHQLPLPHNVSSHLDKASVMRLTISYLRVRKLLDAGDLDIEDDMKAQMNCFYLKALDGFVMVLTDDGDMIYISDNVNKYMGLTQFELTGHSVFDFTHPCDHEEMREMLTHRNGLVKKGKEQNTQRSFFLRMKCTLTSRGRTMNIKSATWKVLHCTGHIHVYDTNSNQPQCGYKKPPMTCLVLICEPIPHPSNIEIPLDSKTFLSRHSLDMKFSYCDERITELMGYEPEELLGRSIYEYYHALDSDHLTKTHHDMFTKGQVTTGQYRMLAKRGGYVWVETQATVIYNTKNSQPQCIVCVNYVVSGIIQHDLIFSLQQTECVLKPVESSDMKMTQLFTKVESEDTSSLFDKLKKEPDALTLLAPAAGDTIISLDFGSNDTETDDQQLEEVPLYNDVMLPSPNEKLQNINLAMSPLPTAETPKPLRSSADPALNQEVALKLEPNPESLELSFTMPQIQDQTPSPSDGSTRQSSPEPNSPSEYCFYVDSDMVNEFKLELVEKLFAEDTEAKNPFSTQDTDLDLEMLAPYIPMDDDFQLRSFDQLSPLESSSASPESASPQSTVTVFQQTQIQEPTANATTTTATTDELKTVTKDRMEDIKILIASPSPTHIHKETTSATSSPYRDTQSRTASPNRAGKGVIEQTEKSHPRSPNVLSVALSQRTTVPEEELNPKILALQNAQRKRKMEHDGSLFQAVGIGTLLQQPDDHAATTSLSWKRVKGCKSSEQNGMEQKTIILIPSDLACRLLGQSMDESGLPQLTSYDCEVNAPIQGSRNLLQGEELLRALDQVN

For the compound `COC(=O)C(=O)NCC(=O)OC(C)OC(=O)OC(C)(C)C` (centres undefined), the fold change (FC) in test [1] was 2; in test [2], less than 2.
For the compound `COC(=O)C(=O)NCC(=O)OCOC(=O)OC(C)C`, the fold change (FC) in test [1] and in [2] was less than 1 throughout.
For the compound `COC(=O)C(=O)NCC(=O)OC(C)C`, the result in [3], in test [6], in test [7], in test [12], in test [13] and in test [14] was Active. The outcome in test [15], in [16], in test [17], in test [19], in test [21] and in test [24] was Active. The Activity result in test [4] is given as “Active; Compound Showed Higher Mrna Expression In Liver Compared To Brain”; in test [10], “Active; Compound Showed Higher Mrna Expression In Liver Compared To Brain”; in test [20], “Active; Less Protected Compared To Compound Treated Wild-Type Mouse”; in [23], “Active; Compound Showed Higher Mrna Expression In Liver Compared To Brain”; in [25], “Active; Compound Showed Higher Mrna Expression In Liver Compared To Brain”. Besides, the ED50 in test [5] turned out to be 2130 µM; in test [9], 1140 µM. Also, the outcome in test [8], in test [11], in test [18], in test [22] and in test [26] was inactive.
Consider `COC(=O)C(=O)NCC(=O)OC(C)OC(=O)OC(C)C` (centres undefined), for which the fold change (FC) in test [1] was 3; in test [2], less than 2.
On to `COC(=O)C(=O)NCC(=O)OC(C)OC(=O)C(C)(C)C` (centres undefined), for which the fold change (FC) was 6 in test [1] and less than 2 in test [2].
For the compound `COC(=O)OCOC(=O)CNC(=O)C(=O)OC`, the fold change (FC) in test [1] and in test [2] was less than 1 throughout.
In the case of `COC(=O)C(=O)NCC(=O)OCOC(=O)Oc1ccccc1`, the fold change (FC) in test [1] and in test [2] was less than 1 throughout.
For `CCOC(=O)OC(C)OC(=O)CNC(=O)C(=O)OC` (centres undefined), the results for the fold change (FC) in test [1] and in test [2] were 3 and less than 2, respectively.
Regarding `COC(=O)C(=O)NCC(=O)OCOC(=O)c1ccccc1`, the figures for the fold change (FC) in test [1] and in test [2] were 3 and less than 2, respectively.
As for `COC(=O)C(=O)NCC(=O)OC(C)OC(C)=O` (centres undefined), the fold change (FC) in [1] was 6; in [2], less than 2.
The like results for `COC(=O)C(=O)NCC(=O)OC(C)OC(=O)c1ccccc1` (centres undefined) were, in that order, 5 and less than 2.
As to `COC(=O)C(=O)NCC(=O)OC(C)OC(=O)C(C)C` (centres undefined), the fold change (FC) in test [1] was 7; in test [2], less than 2.
`COC(=O)C(=O)NCC(=O)OCOC(C)=O`: the figures for the fold change (FC) in test [1] and in test [2] were 2 and less than 1, respectively.
In the case of `COC(=O)C(=O)NCC(=O)OCOC(=O)C(C)C`, the fold change (FC) in test [1] and in test [2] was less than 1 in each case.
In the case of `COC(=O)OC(C)OC(=O)CNC(=O)C(=O)OC` (centres undefined), the fold change (FC) in [1] is 3; in test [2], less than 2.
On to `CCOC(=O)OCOC(=O)CNC(=O)C(=O)OC`, for which the fold change (FC) in test [1] and in [2] was less than 1 throughout.
In the case of `CCC(=O)OCOC(=O)CNC(=O)C(=O)OC`, the values for the fold change (FC) in test [1] and in test [2] were 1 and less than 1, respectively.
As to `COC(=O)C(=O)NCC(=O)OCOC(=O)C(C)(C)C`, the fold change (FC) was 1 in test [1] and less than 1 in [2].
On to `CCC(=O)OC(C)OC(=O)CNC(=O)C(=O)OC` (centres undefined), for which the fold change (FC) was 4 in test [1] and less than 2 in test [2].
As to `COC(=O)C(=O)NCC(=O)OC(C)OC(=O)Oc1ccccc1` (centres undefined), the values for the fold change (FC) in test [1] and in test [2] were 5 and less than 2, respectively.
On to `COC(=O)C(=O)NCC(=O)OCOC(=O)OC(C)(C)C`, for which the fold change (FC) in [1] and in [2] was less than 1 throughout.

For the origin of these results see ChEMBL document CHEMBL6182928, “Characterization of Hepatotropic Small Molecule Inhibitors of Hypoxia Inducible Factor Prolyl Hydroxylase in the Prevention of Oxygen-Induced Retinopathy” (J Med Chem, 2025).
